{"source": "patent US11707439B2", "about": "“Parenteral treatments involving aminoadamantane derivatives” (Shinkei Therapeutics, Inc., priority 2019, dated 2023)", "key": {"[1]": {"assay": "Osmolality of amantadine hydrochloride solution in sterile water for injection", "format": "physicochemical", "source_text": "Examples of tonicity agents that can be used in the compositions of the present invention include, but are not limited to, sodium chloride, mannitol, dextrose, potassium chloride, sodium chloride and mixtures thereof. The tonicity agents may be present in an amount so as to provide osmolality of from about 250 mOsm/kg to about 350 mOsm/kg, particularly from 280 mOsm/kg to 320 mOsm/kg."}, "[2]": {"assay": "Pharmacokinetic study in 10 healthy subjects: intravenous infusion vs oral capsules", "format": "in vivo, human", "conditions": "for Tmax / Cmax / half-life: fasted healthy subjects"}, "[3]": {"system": "fluid percussion injury", "conditions": "chronic amantadine-pumping infusion, cited from earlier work"}, "[4]": {"conditions": "postmortem brain tissue of 21 patients previously treated with amantadine sulfate; cited from earlier work"}, "[5]": {"system": "persistent vegetative state", "conditions": "single patient; 100 mg/day intravenously increased to 300 mg/day, then enteral; cited from earlier work"}, "[6]": {"conditions": "continuous subcutaneous administration, Parkinson's disease patients; cited from earlier work"}}, "note": "Where a name gives a salt, the structure may show the parent alone. Read-outs that look alike come from different tables or passages of the source.", "data": [{"smiles": "NC12CC3CC(CC(C3)C1)C2", "note": "[amantadine hydrochloride]", "values": [{"measurement": "Osmolality", "setting": "[1]; 10 mg/ml solution in sterile water for injection", "value": 97, "unit": "mOsm/kg"}, {"measurement": "Osmolality", "setting": "[1]; 20 mg/ml solution in sterile water for injection", "value": 192, "unit": "mOsm/kg"}, {"measurement": "Osmolality", "setting": "[1]; 30 mg/ml solution in sterile water for injection", "value": 283, "unit": "mOsm/kg"}, {"measurement": "Osmolality", "setting": "[1]; 40 mg/ml solution in sterile water for injection", "value": 369, "unit": "mOsm/kg"}, {"measurement": "Osmolality", "setting": "[1]; 50 mg/ml solution in sterile water for injection", "value": 509, "unit": "mOsm/kg"}, {"measurement": "Osmolality", "setting": "[1]; 75 mg/ml solution in sterile water for injection", "value": 671, "unit": "mOsm/kg"}]}, {"smiles": "NC12CC3CC(CC(C3)C1)C2", "note": "[amantadine, 1-amantanamine]", "values": [{"measurement": "Peak and total plasma exposures following the infusion, lower than reference oral dose", "setting": "[2]; 50 mg intravenous infusion vs 200 mg oral dose", "value": "approximately 5 fold"}, {"measurement": "Tmax", "setting": "[2]; human, plasma, iv, 50 mg, Treatment A: single 50 mg dose, intravenous infusion over 180 minutes, plasma, read-out: mean Tmax", "value": 4.1, "unit": "h"}, {"measurement": "Tmax", "setting": "[2]; human, plasma, iv, 50 mg, Treatment A: single 50 mg dose, intravenous infusion over 180 minutes, plasma, read-out: median Tmax", "value": 4, "unit": "h"}, {"measurement": "Tmax", "setting": "[2]; human, plasma, po, 200 mg, Treatment B: single 200 mg oral dose as 2×100 mg capsules, plasma, read-out: mean Tmax", "value": 3.6, "unit": "h"}, {"measurement": "Tmax", "setting": "[2]; human, plasma, po, 200 mg, Treatment B: single 200 mg oral dose as 2×100 mg capsules, plasma, read-out: median Tmax", "value": 2.8, "unit": "h"}, {"measurement": "bioavailability", "setting": "[2]; human, plasma, 200 mg oral, from LSGM A/B ratio of CLIV to CLIV/F, read-out: bioavailability of the oral capsule", "value": 122, "unit": "%"}, {"measurement": "Cmax", "setting": "[2]; human, Treatment A: single 50 mg dose, intravenous infusion over 180 minutes, plasma", "value": 142, "unit": "ng/mL"}, {"measurement": "half-life", "setting": "[2]; human, Treatment A: single 50 mg dose, intravenous infusion over 180 minutes, plasma, read-out: mean apparent first-order elimination half-life (T1/2) (converted)", "value": 14, "unit": "h"}, {"measurement": "Cmax", "setting": "[2]; human, Treatment B: single 200 mg oral dose as 2×100 mg capsules, plasma", "value": 643, "unit": "ng/mL"}, {"measurement": "half-life", "setting": "[2]; human, Treatment B: single 200 mg oral dose as 2×100 mg capsules, plasma, read-out: mean T1/2 (converted)", "value": 14.6, "unit": "h"}, {"measurement": "dopamine-release deficits", "setting": "[3]; rats after fluid percussion injury", "value": "reversed"}, {"measurement": "behavioral impairment after fluid percussion injuries", "setting": "[3]; rats", "value": "ameliorated"}, {"measurement": "elimination half-life from brain tissue", "setting": "[4]", "value": "much longer than from blood"}, {"measurement": "clinical outcome in persistent vegetative state", "setting": "[5]", "value": "stunning awakening of the patient, fully orientated within days"}]}, {"smiles": "CN1CCc2cccc3c2[C@H]1Cc1ccc(O)c(O)c1-3", "note": "[apomorphine]", "values": [{"measurement": "eosinophilia and orthostatic hypotension, share of PD patients", "setting": "[6]", "value": "less than 5%"}]}]}
